{"source": "patent US20240299318A1", "about": "“AMISELIMOD FOR PREVENTING, TREATING OR AMELIORATING ULCERATIVE COLITIS” (Bausch Health Ireland Limited, priority 2021, published 2024)", "key": {"S1P3 receptor": {"molecular_target": "S1P3 receptor (Homo sapiens, UniProt Q99500)", "sequence (Q99500 whole entry)": "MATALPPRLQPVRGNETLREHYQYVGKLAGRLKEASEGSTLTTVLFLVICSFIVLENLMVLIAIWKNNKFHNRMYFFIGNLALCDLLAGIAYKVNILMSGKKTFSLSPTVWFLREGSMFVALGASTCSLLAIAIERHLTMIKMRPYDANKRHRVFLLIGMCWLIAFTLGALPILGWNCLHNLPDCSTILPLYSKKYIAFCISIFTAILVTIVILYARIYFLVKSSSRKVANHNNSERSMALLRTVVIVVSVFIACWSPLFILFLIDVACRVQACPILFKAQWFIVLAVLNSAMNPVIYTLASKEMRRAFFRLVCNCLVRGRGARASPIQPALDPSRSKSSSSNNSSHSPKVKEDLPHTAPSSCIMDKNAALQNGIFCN", "assay": "agonistic activity at S1P3 receptor", "type": "biochemical"}, "human S1Ps receptor": {"molecular_target": "human S1Ps receptor (Homo sapiens, UniProt Q9H228)", "sequence (Q9H228 whole entry)": "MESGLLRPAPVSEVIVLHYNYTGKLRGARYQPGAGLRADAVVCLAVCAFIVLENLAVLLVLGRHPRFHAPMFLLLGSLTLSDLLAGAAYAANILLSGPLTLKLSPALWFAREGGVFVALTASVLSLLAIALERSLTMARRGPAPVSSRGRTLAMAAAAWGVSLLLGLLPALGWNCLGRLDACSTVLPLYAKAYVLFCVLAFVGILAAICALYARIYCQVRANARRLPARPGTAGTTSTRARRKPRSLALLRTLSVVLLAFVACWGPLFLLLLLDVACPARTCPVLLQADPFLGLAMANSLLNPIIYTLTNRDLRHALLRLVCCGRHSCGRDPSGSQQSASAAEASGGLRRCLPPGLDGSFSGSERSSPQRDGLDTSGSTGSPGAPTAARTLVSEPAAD", "assay": "agonistic activity at human S1Ps receptor", "type": "biochemical", "conditions": "less potent than at human S1P1 receptor"}, "human S1P1 receptor": {"molecular_target": "human S1P1 receptor (Homo sapiens, UniProt P21453)", "sequence (P21453 whole entry)": "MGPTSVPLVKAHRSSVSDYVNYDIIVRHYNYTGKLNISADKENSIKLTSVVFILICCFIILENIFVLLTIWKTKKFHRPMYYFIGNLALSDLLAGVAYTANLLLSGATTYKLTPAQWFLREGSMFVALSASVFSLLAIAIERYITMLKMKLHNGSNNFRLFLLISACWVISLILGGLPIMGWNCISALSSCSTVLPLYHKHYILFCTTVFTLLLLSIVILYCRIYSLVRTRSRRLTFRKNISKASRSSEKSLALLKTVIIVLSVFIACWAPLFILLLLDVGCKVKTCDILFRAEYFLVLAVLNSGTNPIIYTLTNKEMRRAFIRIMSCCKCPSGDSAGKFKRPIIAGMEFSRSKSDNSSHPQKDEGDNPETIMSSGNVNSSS", "assay": "agonistic activity at human S1P1 receptor", "type": "biochemical", "conditions": "compared with S1P4 and S1P5"}, "human S1P4 receptor": {"molecular_target": "T1, human S1P4 receptor (Homo sapiens, UniProt O95977)", "T1 sequence (O95977 1-384)": "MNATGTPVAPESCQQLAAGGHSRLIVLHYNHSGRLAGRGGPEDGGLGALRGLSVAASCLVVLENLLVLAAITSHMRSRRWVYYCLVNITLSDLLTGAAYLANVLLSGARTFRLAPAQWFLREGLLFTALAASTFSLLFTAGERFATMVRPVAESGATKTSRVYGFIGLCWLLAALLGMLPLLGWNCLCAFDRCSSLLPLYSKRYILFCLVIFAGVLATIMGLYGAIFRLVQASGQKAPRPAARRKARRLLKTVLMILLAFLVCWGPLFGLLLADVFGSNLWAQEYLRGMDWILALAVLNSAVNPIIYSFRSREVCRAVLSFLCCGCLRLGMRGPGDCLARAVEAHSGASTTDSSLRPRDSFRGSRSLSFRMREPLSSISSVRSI", "assay": "agonistic activity at human S1P4 receptor", "type": "biochemical", "conditions": "less potent than at human S1P1 receptor"}, "human S1P2 receptor": {"molecular_target": "human S1P2 receptor (Homo sapiens, UniProt O95136)", "sequence (O95136 whole entry)": "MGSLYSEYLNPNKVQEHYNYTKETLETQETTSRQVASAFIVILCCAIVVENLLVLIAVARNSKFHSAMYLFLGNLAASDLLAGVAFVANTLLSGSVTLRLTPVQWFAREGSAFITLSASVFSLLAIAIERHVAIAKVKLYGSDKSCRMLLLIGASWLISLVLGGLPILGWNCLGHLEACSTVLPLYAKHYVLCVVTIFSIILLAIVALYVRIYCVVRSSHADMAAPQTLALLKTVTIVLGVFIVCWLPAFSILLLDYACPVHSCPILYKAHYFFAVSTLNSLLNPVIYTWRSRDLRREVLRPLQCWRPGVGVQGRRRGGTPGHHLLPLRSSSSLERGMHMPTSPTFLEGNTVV", "assay": "agonistic activity at human S1P2 receptor", "type": "biochemical"}, "[1]": {"assay": "study of amiselimod 0.4 mg QD: steady state, AUC, Cmax, lymphocyte counts", "type": "in vivo", "conditions": "for increase of steady-state AUC on day 13 compared with day 1 / increase of steady-state Cmax on day 13 compared with day 1: amiselimod 0.4 mg QD", "protocol": "Amiselimod has a half-life of about 400 hours. For example, amiselimod has a terminal half-life that is about 20 times longer than etrasimod, which has a half-life of about 17-20 hours. In a study, a daily dose of amiselimod achieved a therapeutic steady state after 14 days of 0.4 mg QD administration. On day 13, the steady-state AUC and Cmax for amiselimod 0.4 mg QD increased by 10-fold for amiselimod and by 4-fold for amiselimod-P compared with day 1. This increase in AUC and Cmax correlated with gradual decrease in absolute lymphocyte counts. The reduction in lymphocyte counts was maintained after amiselimod discontinuation, indicating a persistent therapeutic amiselimod AUC owing in part to the associated half-life. Accordingly, amiselimod may be administered in accordance with the methods described herein less frequently than once daily to achieve the desired treatment such, as for example, maintenance of Ulcerative Colitis. In some embodiments, the second dose may be administered during the second administration period (e.g., the maintenance dose phase) QD, BID, TID, or QID every other day during the second administration period or every two days during the second administration period or every three days during the second administration period or every four days during the second administration period or every five days during the second administration period or every six days during the second administration period or every seven days during the second administration period."}, "[2]": {"assay": "half-life and accumulation to steady state", "type": "in vivo, humans", "conditions": "for half-life: in humans; for period of accumulation to steady state: inferred from long half-life"}, "healthy subjects": {"system": "healthy subjects", "assay": "Phase 1 randomized, double-blind, placebo-controlled safety study, upwardly titrated amiselimod", "type": "in vivo, human", "conditions": "for discontinuation rate: safety population, 95 subjects per group", "protocol": "The safety of amiselimod in healthy subjects was evaluated in a Phase 1 randomized, double-blind, placebo-controlled study where the dose of amiselimod was upwardly titrated.\nA randomized, double-blind, multiple-dose, placebo-controlled, parallel study with a nested crossover design evaluated the safety and tolerability profile of amiselimod. Healthy adults were randomized in a 2:1:1 ratio during a 28-day treatment period accordingly: a single dose of placebo followed by oral amiselimod (upwardly titrated in doses ranging from 0.4 to 1.6 mg to achieve steady-state concentrations); a single dose of oral moxifloxacin 400 mg followed by placebo; or placebo followed by a single dose of moxifloxacin 400 mg (for the safety analysis, moxifloxacin arms were combined). The safety population included all subjects who received at least one dose of treatment. Adverse events (AE) and serious AEs were collected. Treatment-emergent AEs were defined as an AE that was starting or worsening at the time of or after study drug administration. Changes in clinical laboratory parameters (including lymphocyte counts), physical examinations, vital signs, and electrocardiogram parameters (including heart rate, PR, QRS, and QT intervals) were recorded. Subjects were permitted to withdraw if lymphocyte counts were ≤0.2×10^9/L."}, "[3]": {"system": "peripheral blood lymphocytes (PBLs)", "assay": "reduction of peripheral blood lymphocytes after oral dose, rats", "type": "in vivo", "conditions": "oral dose of 0.1 mg/kg or higher"}, "[4]": {"system": "peripheral blood lymphocytes (PBLs)", "assay": "reduction of peripheral blood lymphocytes after oral dose, mice", "type": "in vivo", "conditions": "oral dose of 0.1 mg/kg or higher"}, "heart rate": {"system": "heart rate", "assay": "negative chronotropic activity", "conditions": "in vivo", "excerpt": "Chronotropic effects in the heart can include changes in the heart rate or rhythm. Negative chronotropic effects are those that result in a decreased heart rate and include bradyarrhythmia (bradycardia)."}, "[5]": {"system": "colitis in the adoptive transfer of CD4+CD45RBhigh T cells", "assay": "colitis in the adoptive transfer of CD4+CD45RBhigh T cells in SCID mice", "type": "in vivo", "conditions": "oral administration"}, "[6]": {"system": "peripheral blood lymphocytes (PBLs)", "assay": "reduction of peripheral blood lymphocytes after oral dose, cynomolgus monkeys", "type": "in vivo", "conditions": "oral dose of 0.1 mg/kg or higher"}, "[7]": {"conditions": "comparator etrasimod; cited from earlier work"}}, "note": "Where two headings read alike, the source gives them in different places."}
{"smiles": "CCCCCCCOc1ccc(CCC(N)(CO)COP(=O)(O)O)cc1C(F)(F)F", "note": "(stereo in doubt) [(S)-MT-1303-P]", "values": [{"measurement": "agonistic activity at S1P3 receptor", "setting": "S1P3 receptor", "result": "no agonistic activity"}, {"measurement": "agonistic activity at human S1Ps receptor", "setting": "human S1Ps receptor", "result": "agonistic activity"}, {"measurement": "agonistic activity at human S1P1 receptor", "setting": "human S1P1 receptor", "result": "more potently than at human S1P4 receptor and human S1Ps receptor"}, {"measurement": "agonistic activity at human S1P4 receptor", "setting": "human S1P4 receptor", "result": "agonistic activity"}, {"measurement": "agonistic activity at human S1P2 receptor", "setting": "human S1P2 receptor", "result": "no agonistic activity"}]}
{"smiles": "CCCCCCCOc1ccc(CC[C@@](N)(CO)COP(=O)(O)O)cc1C(F)(F)F", "note": "[MT-1303-P]", "values": [{"measurement": "increase of steady-state AUC on day 13 compared with day 1", "setting": "[1]", "result": 4, "unit": "fold"}, {"measurement": "increase of steady-state Cmax on day 13 compared with day 1", "setting": "[1]", "result": 4, "unit": "fold"}, {"measurement": "half-life", "setting": "[2]", "result": "approximately 400 hours"}, {"measurement": "period of accumulation to steady state", "setting": "[2]", "result": "about 10 weeks"}]}
{"smiles": "COc1c(N2C[C@@H]3CCCN[C@@H]3C2)c(F)cc2c(=O)c(C(=O)O)cn(C3CC3)c12", "note": "[Moxifloxacin, moxifloxacin, reference compound]", "values": [{"measurement": "Constipation", "setting": "healthy subjects; Days 1-26, n = 95", "result": "11 (12) n (%)"}, {"measurement": "Dizziness", "setting": "healthy subjects; Days 1-26, n = 95", "result": "1 (1) n (%)"}, {"measurement": "Headache", "setting": "healthy subjects; Days 1-26, n = 95", "result": "12 (13) n (%)"}, {"measurement": "Number of subjects with an adverse event", "setting": "healthy subjects; Days 1-26, n = 95", "result": "49 (52) n (%)"}, {"measurement": "Upper respiratory tract infection", "setting": "healthy subjects; Days 1-26, n = 95", "result": "1 (1) n (%)"}, {"measurement": "White blood cell count decreased", "setting": "healthy subjects; Days 1-26, n = 95", "result": "0 n (%)"}, {"measurement": "Constipation", "setting": "healthy subjects; Days 27+, n = 46", "result": "0 n (%)"}, {"measurement": "Dizziness", "setting": "healthy subjects; Days 27+, n = 46", "result": "1 (2) n (%)"}, {"measurement": "Headache", "setting": "healthy subjects; Days 27+, n = 46", "result": "0 n (%)"}, {"measurement": "Number of subjects with an adverse event", "setting": "healthy subjects; Days 27+, n = 46", "result": "7 (15) n (%)"}, {"measurement": "Upper respiratory tract infection", "setting": "healthy subjects; Days 27+, n = 46", "result": "0 n (%)"}, {"measurement": "White blood cell count decreased", "setting": "healthy subjects; Days 27+, n = 46", "result": "0 n (%)"}, {"measurement": "discontinuation rate", "setting": "healthy subjects", "result": 4, "unit": "%"}]}
{"smiles": "CCCCCCCOc1ccc(CCC(N)(CO)CO)cc1C(F)(F)F", "note": "[amiselimod]", "values": [{"measurement": "number of peripheral blood lymphocytes (PBLs)", "setting": "[3]", "result": "significantly reduced"}, {"measurement": "time to therapeutic steady state", "setting": "[1]; 0.4 mg QD administration", "result": 14, "unit": "days"}, {"measurement": "reduction in lymphocyte counts after discontinuation", "setting": "[1]; after amiselimod discontinuation", "result": "maintained"}, {"measurement": "increase of steady-state AUC on day 13 compared with day 1", "setting": "[1]", "result": 10, "unit": "fold"}, {"measurement": "increase of steady-state Cmax on day 13 compared with day 1", "setting": "[1]", "result": 10, "unit": "fold"}, {"measurement": "Constipation", "setting": "healthy subjects; Days 1-13, n = 95", "result": "8 (8) n (%)"}, {"measurement": "Dizziness", "setting": "healthy subjects; Days 1-13, n = 95", "result": "5 (5) n (%)"}, {"measurement": "Headache", "setting": "healthy subjects; Days 1-13, n = 95", "result": "4 (4) n (%)"}, {"measurement": "Number of subjects with an adverse event", "setting": "healthy subjects; Days 1-13, n = 95", "result": "55 (58) n (%)"}, {"measurement": "Upper respiratory tract infection", "setting": "healthy subjects; Days 1-13, n = 95", "result": "1 (1) n (%)"}, {"measurement": "White blood cell count decreased", "setting": "healthy subjects; Days 1-13, n = 95", "result": "18 (19) n (%)"}, {"measurement": "Constipation", "setting": "healthy subjects; Days 14+, n = 92", "result": "6 (7) n (%)"}, {"measurement": "Dizziness", "setting": "healthy subjects; Days 14+, n = 92", "result": "6 (7) n (%)"}, {"measurement": "Headache", "setting": "healthy subjects; Days 14+, n = 92", "result": "11 (12) n (%)"}, {"measurement": "Number of subjects with an adverse event", "setting": "healthy subjects; Days 14+, n = 92", "result": "57 (62) n (%)"}, {"measurement": "Upper respiratory tract infection", "setting": "healthy subjects; Days 14+, n = 92", "result": "6 (7) n (%)"}, {"measurement": "White blood cell count decreased", "setting": "healthy subjects; Days 14+, n = 92", "result": "13 (14) n (%)"}, {"measurement": "amiselimod-related serious AE of atrial fibrillation", "setting": "healthy subjects; day 26, after amiselimod 1.6 mg for 3 of the preceding 4 days", "result": "One subject"}, {"measurement": "mean absolute lymphocyte count, nadir", "setting": "healthy subjects; day 27", "result": 0.424, "unit": "thou/μL"}, {"measurement": "changes to vital signs, physical examinations, and ECG parameters", "setting": "healthy subjects; in vivo", "result": "within normal limits"}, {"measurement": "tolerability", "setting": "healthy subjects; multiple, upwardly titrated doses, healthy subjects", "result": "generally well tolerated"}, {"measurement": "mean absolute lymphocyte count", "setting": "healthy subjects; predose", "result": 1.681, "unit": "thou/μL"}, {"measurement": "discontinuation rate", "setting": "healthy subjects", "result": 8, "unit": "%"}, {"measurement": "number of peripheral blood lymphocytes (PBLs)", "setting": "[4]", "result": "significantly reduced"}, {"measurement": "negative chronotropic activity", "setting": "heart rate", "result": "lack of negative chronotropic activity"}, {"measurement": "colitis", "setting": "[5]", "result": "reduced colitis"}, {"measurement": "effect on colitis compared with murine anti-TNF-α antibody", "setting": "[5]", "result": "comparable to that of a murine anti-tumor necrosis factor-α (TNF-α) antibody"}, {"measurement": "number of peripheral blood lymphocytes (PBLs)", "setting": "[6]", "result": "significantly reduced"}, {"measurement": "half-life", "setting": "[2]; human, in vivo, read-out: half-life (converted)", "result": "~16.7", "unit": "days"}, {"measurement": "half-life", "setting": "[2]", "result": "approximately 400 hours"}, {"measurement": "period of accumulation to steady state", "setting": "[2]", "result": "about 10 weeks"}, {"measurement": "terminal half-life relative to etrasimod", "setting": "[2]; longer than etrasimod", "result": "about 20 times"}]}
{"smiles": "O=C(O)C[C@H]1CCc2c1[nH]c1ccc(OCc3ccc(C4CCCC4)c(C(F)(F)F)c3)cc21", "note": "[etrasimod]", "values": [{"measurement": "half-life", "setting": "[7]", "result": "17 to 20", "unit": "h"}]}
